One experiment deals with T1, p300 (Homo sapiens, UniProt Q09472).
T1 construct: host or cells: A549 P300 HiBit cells
Briefly: P300 degradation, HiBit technology in A549 P300 HiBit cells (2 h). Format: cell-based. The note with it: 2 hrs post treatment; for Dmax: A549, A549 P300 HiBit cells; for DC50: A549 P300 HiBit cells. In a few lines: (§1)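 Cells: A549 HiBiT-tagged lines, 0.2×10^4/well, F-12K + 10% HI-FBS, equilibrated overnight. Tx: serial dilution of cpd (10 mM DMSO stock). Readout: HiBiT lytic reagent, 10 min RT shaking, luminescence → potency, Dmax.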
(In general: HiBiT is a short tag that completes a luciferase, so light tracks the accessible tagged protein.)

In another experiment the target is T2, CBP (Homo sapiens, UniProt Q92793).
T2 construct: host or cells: A549 CBP HiBit cells
T2 sequence (Q92793 whole entry): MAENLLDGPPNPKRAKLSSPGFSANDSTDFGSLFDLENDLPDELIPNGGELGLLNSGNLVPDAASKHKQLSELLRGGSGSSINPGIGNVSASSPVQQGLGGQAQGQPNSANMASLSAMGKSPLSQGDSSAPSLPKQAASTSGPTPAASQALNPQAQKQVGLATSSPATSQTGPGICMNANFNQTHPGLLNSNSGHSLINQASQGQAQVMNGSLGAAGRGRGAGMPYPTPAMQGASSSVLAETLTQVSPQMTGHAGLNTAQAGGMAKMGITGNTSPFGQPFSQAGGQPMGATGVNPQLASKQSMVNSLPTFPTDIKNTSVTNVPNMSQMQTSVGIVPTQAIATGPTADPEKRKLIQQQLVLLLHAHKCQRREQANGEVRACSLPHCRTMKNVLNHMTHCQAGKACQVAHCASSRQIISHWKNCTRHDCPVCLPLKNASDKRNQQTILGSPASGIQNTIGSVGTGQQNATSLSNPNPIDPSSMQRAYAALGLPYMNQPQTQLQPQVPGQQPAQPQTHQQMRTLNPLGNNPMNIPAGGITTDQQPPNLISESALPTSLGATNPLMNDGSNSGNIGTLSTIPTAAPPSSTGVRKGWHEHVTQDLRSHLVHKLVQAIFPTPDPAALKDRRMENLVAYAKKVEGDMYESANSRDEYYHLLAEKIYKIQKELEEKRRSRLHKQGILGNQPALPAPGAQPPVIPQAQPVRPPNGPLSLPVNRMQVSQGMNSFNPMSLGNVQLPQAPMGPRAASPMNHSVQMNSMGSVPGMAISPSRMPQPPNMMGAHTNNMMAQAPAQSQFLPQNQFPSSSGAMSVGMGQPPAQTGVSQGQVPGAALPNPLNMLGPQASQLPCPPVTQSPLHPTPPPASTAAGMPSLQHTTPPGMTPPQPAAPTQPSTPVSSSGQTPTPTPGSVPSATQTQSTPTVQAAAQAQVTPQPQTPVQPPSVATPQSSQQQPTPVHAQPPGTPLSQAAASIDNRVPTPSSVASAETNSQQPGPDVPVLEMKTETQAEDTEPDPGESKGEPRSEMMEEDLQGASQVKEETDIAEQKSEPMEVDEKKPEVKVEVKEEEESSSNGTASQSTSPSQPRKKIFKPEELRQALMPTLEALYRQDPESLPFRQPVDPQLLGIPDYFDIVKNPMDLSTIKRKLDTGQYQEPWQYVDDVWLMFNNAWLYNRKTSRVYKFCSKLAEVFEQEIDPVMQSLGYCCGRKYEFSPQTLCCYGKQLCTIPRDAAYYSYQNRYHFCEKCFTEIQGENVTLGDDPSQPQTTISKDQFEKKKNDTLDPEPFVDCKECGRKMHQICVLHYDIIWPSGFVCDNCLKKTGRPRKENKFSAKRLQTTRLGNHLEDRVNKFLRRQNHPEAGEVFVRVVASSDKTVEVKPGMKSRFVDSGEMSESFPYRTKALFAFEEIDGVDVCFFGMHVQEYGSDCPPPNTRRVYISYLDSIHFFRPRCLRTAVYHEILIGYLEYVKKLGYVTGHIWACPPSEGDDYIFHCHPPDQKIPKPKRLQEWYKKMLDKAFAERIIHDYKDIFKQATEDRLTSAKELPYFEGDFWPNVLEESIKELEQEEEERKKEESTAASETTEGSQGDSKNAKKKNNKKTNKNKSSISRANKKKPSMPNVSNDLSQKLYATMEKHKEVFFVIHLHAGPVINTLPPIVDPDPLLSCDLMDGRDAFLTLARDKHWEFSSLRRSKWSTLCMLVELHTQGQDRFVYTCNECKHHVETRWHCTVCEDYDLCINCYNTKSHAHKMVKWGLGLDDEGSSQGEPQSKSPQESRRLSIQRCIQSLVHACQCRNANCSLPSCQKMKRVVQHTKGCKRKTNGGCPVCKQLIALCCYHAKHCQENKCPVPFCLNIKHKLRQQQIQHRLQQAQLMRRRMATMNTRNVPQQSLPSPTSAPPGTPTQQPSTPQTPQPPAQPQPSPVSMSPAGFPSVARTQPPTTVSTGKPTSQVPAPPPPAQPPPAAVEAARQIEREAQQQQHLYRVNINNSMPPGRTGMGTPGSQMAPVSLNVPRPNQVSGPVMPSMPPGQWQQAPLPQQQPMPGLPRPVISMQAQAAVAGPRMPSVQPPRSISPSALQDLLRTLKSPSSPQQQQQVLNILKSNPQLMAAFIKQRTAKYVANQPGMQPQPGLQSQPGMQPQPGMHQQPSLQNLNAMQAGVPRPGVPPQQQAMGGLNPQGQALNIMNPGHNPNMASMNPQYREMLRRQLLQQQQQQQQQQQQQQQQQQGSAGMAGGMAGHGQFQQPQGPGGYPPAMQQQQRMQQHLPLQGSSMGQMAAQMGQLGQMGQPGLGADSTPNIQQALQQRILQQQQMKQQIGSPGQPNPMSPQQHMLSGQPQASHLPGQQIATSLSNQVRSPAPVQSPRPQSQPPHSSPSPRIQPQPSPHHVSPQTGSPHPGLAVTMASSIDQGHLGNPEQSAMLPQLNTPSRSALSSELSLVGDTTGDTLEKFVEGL
Put plainly: CBP degradation, HiBit technology in A549 CBP HiBit cells (24 h). The class given is cell-based. Conditions: 24 hrs post treatment. The method in brief:
as §1

Molecules are shown by their SMILES.

The results in this text go back to patent publication US20250114345A1, “COMPOUNDS AND COMPOSITIONS AS CBP/P300 DEGRADERS AND USES THEREOF” (Oncopia Therapeutics, Inc. d/b/a/ SK Life Science Labs, priority 2023, published 2025).

By Dmax is commonly meant the largest share of the target that was removed. The DC50 is the concentration giving 50% degradation. Low values mean degradation at low concentration, high ones degradation only at high concentration.

T1 sequence (Q09472 whole entry): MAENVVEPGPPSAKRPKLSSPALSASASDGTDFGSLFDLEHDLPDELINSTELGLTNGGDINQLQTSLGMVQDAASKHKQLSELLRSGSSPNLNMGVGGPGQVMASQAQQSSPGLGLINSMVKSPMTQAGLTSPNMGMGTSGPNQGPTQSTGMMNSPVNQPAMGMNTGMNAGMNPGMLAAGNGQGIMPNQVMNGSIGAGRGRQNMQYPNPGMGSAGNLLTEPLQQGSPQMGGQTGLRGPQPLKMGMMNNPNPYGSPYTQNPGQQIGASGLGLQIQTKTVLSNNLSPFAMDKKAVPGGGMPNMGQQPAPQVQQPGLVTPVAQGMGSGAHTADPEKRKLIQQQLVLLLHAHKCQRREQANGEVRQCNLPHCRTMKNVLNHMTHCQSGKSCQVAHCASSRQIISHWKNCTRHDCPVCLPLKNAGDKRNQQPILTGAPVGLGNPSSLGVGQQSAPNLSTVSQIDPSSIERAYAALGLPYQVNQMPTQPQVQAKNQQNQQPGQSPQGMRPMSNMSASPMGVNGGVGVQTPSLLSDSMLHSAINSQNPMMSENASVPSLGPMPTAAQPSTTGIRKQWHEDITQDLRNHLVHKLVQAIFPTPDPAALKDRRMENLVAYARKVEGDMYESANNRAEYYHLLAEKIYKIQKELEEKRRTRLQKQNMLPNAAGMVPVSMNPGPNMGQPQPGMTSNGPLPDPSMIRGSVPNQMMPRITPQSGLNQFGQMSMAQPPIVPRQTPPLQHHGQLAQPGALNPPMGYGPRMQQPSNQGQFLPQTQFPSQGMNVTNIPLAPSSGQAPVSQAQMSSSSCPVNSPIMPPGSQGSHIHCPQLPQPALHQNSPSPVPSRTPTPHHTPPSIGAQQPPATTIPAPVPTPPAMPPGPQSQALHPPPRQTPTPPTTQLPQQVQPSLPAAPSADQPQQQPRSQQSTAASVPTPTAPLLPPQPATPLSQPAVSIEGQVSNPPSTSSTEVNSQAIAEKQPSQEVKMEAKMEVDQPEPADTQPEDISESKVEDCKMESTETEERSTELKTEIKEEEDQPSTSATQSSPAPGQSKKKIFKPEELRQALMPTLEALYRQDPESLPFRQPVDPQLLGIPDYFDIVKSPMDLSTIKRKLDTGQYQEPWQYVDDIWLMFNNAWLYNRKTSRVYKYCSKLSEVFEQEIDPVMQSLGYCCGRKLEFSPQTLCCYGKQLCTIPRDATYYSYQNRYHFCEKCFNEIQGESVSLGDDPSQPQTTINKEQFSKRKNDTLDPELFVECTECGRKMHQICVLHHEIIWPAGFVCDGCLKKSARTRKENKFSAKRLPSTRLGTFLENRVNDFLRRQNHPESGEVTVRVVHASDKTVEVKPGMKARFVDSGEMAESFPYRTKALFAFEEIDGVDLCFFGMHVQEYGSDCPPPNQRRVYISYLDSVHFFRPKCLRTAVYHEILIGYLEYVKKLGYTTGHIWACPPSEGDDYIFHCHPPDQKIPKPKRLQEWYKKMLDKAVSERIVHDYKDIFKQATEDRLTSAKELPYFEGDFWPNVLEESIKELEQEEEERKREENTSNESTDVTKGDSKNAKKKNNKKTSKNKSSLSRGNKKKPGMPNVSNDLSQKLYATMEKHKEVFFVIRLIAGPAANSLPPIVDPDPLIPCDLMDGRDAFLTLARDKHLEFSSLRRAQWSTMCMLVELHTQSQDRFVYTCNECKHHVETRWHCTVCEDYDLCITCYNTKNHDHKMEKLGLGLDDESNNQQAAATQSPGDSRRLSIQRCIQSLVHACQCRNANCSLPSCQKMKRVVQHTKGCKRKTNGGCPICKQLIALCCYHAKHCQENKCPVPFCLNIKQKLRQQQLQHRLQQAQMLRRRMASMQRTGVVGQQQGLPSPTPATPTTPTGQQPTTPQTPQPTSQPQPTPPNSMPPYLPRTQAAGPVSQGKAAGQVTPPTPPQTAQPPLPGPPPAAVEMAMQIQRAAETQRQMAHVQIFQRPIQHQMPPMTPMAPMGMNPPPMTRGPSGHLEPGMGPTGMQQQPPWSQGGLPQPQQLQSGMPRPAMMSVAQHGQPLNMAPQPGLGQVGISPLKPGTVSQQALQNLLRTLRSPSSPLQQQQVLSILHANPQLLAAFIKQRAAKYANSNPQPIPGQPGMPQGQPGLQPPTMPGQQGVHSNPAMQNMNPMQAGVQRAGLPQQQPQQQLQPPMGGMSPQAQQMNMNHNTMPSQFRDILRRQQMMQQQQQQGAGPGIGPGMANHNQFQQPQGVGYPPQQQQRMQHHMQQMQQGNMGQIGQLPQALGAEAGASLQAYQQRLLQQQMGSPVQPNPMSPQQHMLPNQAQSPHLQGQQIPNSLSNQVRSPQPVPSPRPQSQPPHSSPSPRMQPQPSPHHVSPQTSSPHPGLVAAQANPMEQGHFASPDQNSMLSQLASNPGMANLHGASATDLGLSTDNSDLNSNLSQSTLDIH

`CC(C)c1cc(N2CCOc3cc(-c4ccc(C(=O)NCC#Cc5ccc6occ(C7CCC(=O)NC7=O)c6c5)nc4)ccc32)cc2c1n(C)c(=O)n2C` (stereo not drawn) [Example A121, N-(3-(3-(2,6-dioxo-piperidin-3-yl)benzofuran-5-yl)prop-2-yn-1-yl)-5-(4-(7-isopropyl-1,3-dimethyl-2-oxo-2,3-dihydro-1H-benzo [d]imidazol-5-yl)-3,4-dihydro-2H-benzo [b][1,4]oxazin-7-yl)picolinamide]: at p300, the maximal degradation (Dmax) was in the range of 60 to 79% and the DC50 fell in the range of 10 to 99 nM. In addition, at CBP, the DC50 was > 1000 nM and the maximal degradation (Dmax) was < 20%.
As for `Cc1cc2c(N3CCCc4nc(-c5ccc(C(=O)NCC#Cc6cc7c(C8CCC(=O)NC8=O)cccc7o6)nc5)ncc43)cc(C3(F)CCOCC3)cc2n(C)c1=O` (stereo not drawn) [Example B82, N-(3-(4-(2,6-dioxopiperidin-3-yl)benzofuran-2-yl)prop-2-yn-1-yl)-5-(5-(7-(4-fluorotetrahydro-2H-pyran-4-yl)-1,3-dimethyl-2-oxo-1,2-dihydroquinolin-5-yl)-5,6,7,8-tetrahydropyrido [3,2-d]pyrimidin-2-yl)picolinamide], on p300, the greatest degradation seen (Dmax) is > 80% and the 50% degradation concentration (DC50) lay within 1 to 9.9 nM. On CBP, the DC50 was > 1000 nM and the Dmax is < 20%.
On to `CC(C)c1cc(-c2cccc3cc(-c4ccc(C(=O)NCC#Cc5ccc6ncn(C7CCC(=O)NC7=O)c6c5)nc4)ncc23)cc2c1n(C)c(=O)n2C` (stereo not drawn) [Example A15, N-(3-(1-(2,6-Dioxopiperidin-3-yl)-1H-benzo[d]imidazol-6-yl)prop-2-yn-1-yl)-5-(8-(7-isopropyl-1,3-dimethyl-2-oxo-2,3-dihydro-1H-benzo[d]imidazol-5-yl)isoquinolin-3-yl)picolinamide], for which, on p300, the greatest degradation seen (Dmax) is > 80% and the DC50 was < 1 nM. At CBP, the DC50 was > 1000 nM and the maximal degradation (Dmax) is < 20%.
Taken in the same sequence, the figures for `Cc1cc(-c2cc3cccc(-c4cc(C(C)C)c5c(c4)n(C)c(=O)n5C)c3cn2)cnc1C(=O)NCC#Cc1cccc(NC23CC(C2)C(=O)NC3=O)c1` [Example A177, N-(3-(3-((2,4-dioxo-3-azabicyclo[3.1.1]heptan-1-yl)amino)phenyl)prop-2-yn-1-yl)-5-(8-(7-isopropyl-1,3-dimethyl-2-oxo-2,3-dihydro-1H-benzo[d]imidazol-5-yl)isoquinolin-3-yl)-3-methylpicolinamide] were > 80%, 10 to 99 nM, > 1000 nM and < 20%.
On to `CC(C)c1cc(N2CCCc3cc(-c4ccc(C(=O)NCC#Cc5ccc6occ(C7CCC(=O)NC7=O)c6c5)nc4)ncc32)cc2c1n(C)c(=O)n2C` (stereo not drawn) [Example A100, N-(3-(3-(2,6-dioxo-piperidin-3-yl)benzofuran-5-yl)prop-2-yn-1-yl)-5-(1-(7-isopropyl-1,3-dimethyl-2-oxo-2,3-dihydro-1H-benzo [d]imidazol-5-yl)-1,2,3,4-tetrahydro-1,7-naphthyridin-6-yl)picolinamide], for which the values for the Dmax on p300 and at CBP were > 80% and 20 to 39%, respectively. In addition, the DC50 fell in the range of 1 to 9.9 nM on p300 and 10 to 99 nM at CBP.
Taken in the same sequence, the figures for `COc1cc(N2CCOc3cc(-c4ccc(C(=O)NCC#Cc5ccc6occ(C7CCC(=O)NC7=O)c6c5)nc4)ncc32)c2cc(C)c(=O)n(C)c2c1` (stereo not drawn) [Example B112, N-(3-(3-(2,6-dioxopiperidin-3-yl)benzofuran-5-yl)prop-2-yn-1-yl)-5-(4-(7-methoxy-1,3-dimethyl-2-oxo-1,2-dihydroquinolin-5-yl)-3,4-dihydro-2H-pyrido[4,3-b][1,4]oxazin-7-yl) picolinamide] were > 80%, < 20%, < 1 nM and 100 to 999 nM.
On p300, `CCc1cc(-c2cccc3cc(-c4ccc(C(=O)NCC#Cc5cc(NC6CCC(=O)NC6=O)nn5C)nc4)ncc23)c2cc(C)c(=O)n(C)c2c1` (stereo not drawn) [Example B7, N-(3-(3-((2,6-Dioxopiperidin-3-yl)amino)-1-methyl-1H-pyrazol-5-yl)prop-2-yn-1-yl)-5-(8-(7-ethyl-1,3-dimethyl-2-oxo-1,2-dihydroquinolin-5-yl)isoquinolin-3-yl)picolinamide] came in with a Dmax of 20 to 39% and a half-maximal degradation concentration (DC50) of 1 to 9.9 nM. Besides, on CBP, the DC50 is > 1000 nM and the greatest degradation seen (Dmax) is < 20%.
For `Cc1cc(-c2ncc3c(n2)CCCN3c2nc(N3CCOCC3)cc3c2cc(C)c(=O)n3C)cnc1C(=O)NCC#Cc1ccc2occ(C3CCC(=O)NC3=O)c2c1` (stereo not drawn) [Example B71, 5-(5-(1,3-dimethyl-7-morpholino-2-oxo-1,2-dihydro-1,6-naphthyridin-5-yl)-5,6,7,8-tetrahydropyrido[3,2-d]pyrimidin-2-yl)-N-(3-(3-(2,6-dioxopiperidin-3-yl)benzofuran-5-yl)prop-2-yn-1-yl)-3-methylpicolinamide], in that order: > 80%, 1 to 9.9 nM, > 1000 nM and < 20%.
`Cc1cc2c(N3CCCc4cc(-c5ccc(C(=O)NCC#Cc6cc7c(C8CCC(=O)NC8=O)cccc7o6)nc5)nnc43)cc(C3CCOCC3)cc2n(C)c1=O` (stereo not drawn) [Example B138, 5-(8-(1,3-dimethyl-2-oxo-7-(tetrahydro-2H-pyran-4-yl)-1,2-dihydroquinolin-5-yl)-5,6,7,8-tetrahydropyrido[2,3-c]pyridazin-3-yl)-N-(3-(4-(2,6-dioxopiperidin-3-yl)benzofuran-2-yl)prop-2-yn-1-yl)picolinamide]: on p300, the Dmax is > 80% and the DC50 is < 1 nM. For the same compound, at CBP, the half-maximal degradation concentration (DC50) fell in the range of 100 to 999 nM and the maximal degradation (Dmax) was < 20%.
For `Cc1cc2c(N3CCCc4nc(-c5ccc(C(=O)NCC#Cc6cc7c(C8CCC(=O)NC8=O)nccc7o6)nc5)ncc43)cc(C3CCOCC3)cc2n(C)c1=O` (stereo not drawn) [Example B94, 5-(5-(1,3-dimethyl-2-oxo-7-(tetrahydro-2H-pyran-4-yl)-1,2-dihydroquinolin-5-yl)-5,6,7,8-tetrahydropyrido[3,2-d]pyrimidin-2-yl)-N-(3-(4-(2,6-dioxopiperidin-3-yl)furo[3,2-c]pyridin-2-yl)prop-2-yn-1-yl)picolinamide], in that order: > 80%, < 1 nM, 1 to 9.9 nM and 20 to 39%.
With `Cc1cc(-c2ncc3c(n2)OCCN3c2ccc3c(c2)n(C)c(=O)n3C)cnc1C(=O)NCC#Cc1cc2c(C3CCC(=O)NC3=O)nccc2o1` (stereo not drawn) [Example A195, 5-(5-(1,3-dimethyl-2-oxo-2,3-dihydro-1H-benzo[d]imidazol-5-yl)-6,7-dihydro-5H-pyrimido[4,5-b][1,4]oxazin-2-yl)-N-(3-(4-(2,6-dioxopiperidin-3-yl)furo[3,2-c]pyridin-2-yl)prop-2-yn-1-yl)-3-methylpicolinamide], on p300, the Dmax was > 80% and the DC50 is 1 to 9.9 nM. Moreover, on CBP, the half-maximal degradation concentration (DC50) was > 1000 nM and the Dmax is < 20%.
Taken in the same sequence, the figures for `CCc1cc(-c2cccc3cc(-c4ccc(C(=O)NCC#Cc5cccc(CC6CCC(=O)NC6=O)c5)nc4)ncc23)c2cc(C)c(=O)n(C)c2c1` (stereo not drawn) [Example B4, N-(3-(3-((2,6-Dioxopiperidin-3-yl)methyl)phenyl)prop-2-yn-1-yl)-5-(8-(7-ethyl-1,3-dimethyl-2-oxo-1,2-dihydroquinolin-5-yl)isoquinolin-3-yl)picolinamide] were 60 to 79%, 10 to 99 nM, 100 to 999 nM and 40 to 59%.
